Measurements from paper PMC12000251, “Evaluation of the Anti-Inflammatory Effects of Novel Fatty Acid-Binding Protein 4 Inhibitors in Microglia” (Journal of Neuroimmune Pharmacology, 2025).
Values joined by “and” are separate entries in the source; they are usually repeats but may differ in a detail not shown here. Identical values can stand only once.

Key:
[1] = target: T1, Recombinantly-expressed human FABP4 (Homo sapiens, UniProt P15090); test: Isothermal titration calorimetry (ITC) binding affinity to FABP4; details: one-site binding model, read-out: KD (ITC titration of FABP4, Figure S1)
T1 construct: made in house
T1 sequence (P15090 whole entry): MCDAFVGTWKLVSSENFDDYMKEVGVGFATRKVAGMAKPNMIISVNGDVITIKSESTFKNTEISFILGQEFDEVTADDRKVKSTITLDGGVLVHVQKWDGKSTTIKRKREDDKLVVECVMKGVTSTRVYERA
Method: A prior fragment screen identified a series of bi-aryl sulfonamides that bound to FABP4. Analogues of this chemical sulfonamide scaffold were then purchased, which led to the identification of the compounds used in this study (MFP-0011462, MFP-0012314, MFP-0012318, and MFP-0012328). Their predicted LogP and tPSA values were calculated in Vortex v2020.1.117658-s (Dotmatics, Boston, MA). The binding affinity of these four compounds was characterised by isothermal titration calorimetry (ITC). ITC was carried out using an iTC200 microcalorimeter (MicroCal, United Kingdom) with a coin shaped sample cell (201.4 μL) with stirring at 1000 rpm at 25°C. Titrations were performed in an ITC buffer (50 mM sodium phosphate, 50 mM NaCl, pH 7.4 with 2% DMSO). Compounds were diluted from concentrated stocks in ITC buffer and loaded into the titration syringe at a concentration of 1 mM, with a final DMSO concentration of 2% (v/v). Recombinantly-expressed human FABP4 was prepared as described previously (Lee et al. [2015a]) in an identical buffer at a protein concentration of 80 μM and placed in the sample cell. A thermal equilibration step at 25°C was followed by an initial 180 s delay step and subsequently an initial 0.2 μL injection. 16 serial injections of the 1 mM compound solution (2 μL each) were made at intervals of 220 s with continuous stirring of the solution in the sample cell. The iTC200 control software was used to operate and acquire raw data as power (microcalories/sec) vs time (min). The data were processed using the Origin 7.0 software (MicroCal) and the binding affinity (KD) was calculated by fitting the data to a one-site binding model.

LPS-activated BV-2 cells [2] = test: Intracellular ROS (DCF-DA) in LPS-activated BV-2 cells; type: cell-based, mouse
Method: BV-2 cells were cultured in DMEM/F-12 media supplemented with 10% (v/v) FBS and 1% (v/v) penicillin/streptomycin, and kept at 37 °C in a humidified incubator ([…], 5% CO2) for all studies. Cells with 80% confluency were used for experiments. […] In some experiments (detailed in Results), BV-2 cells were exposed to MFP compounds for 2 h before a 24 h exposure to LPS and MFP compounds, and in some studies, in the presence of FABP4 siRNA using a 24 h treatment that we have previously employed (Low et al. [2021]). In brief, BV-2 cells were washed once 4 h post-seeding with blank DMEM/F-12 media. siRNA complexes (containing FABP4 siRNA, target sequence 5’-[…]-3’ or AllStar Negative Control siRNA, target sequence proprietary) were added dropwise onto the cells. siRNA complexes were prepared by mixing siRNA and HiPerfect transfection reagent together in FBS-free DMEM/F12 media and incubating for 15 min to allow the siRNA complexes to form. The cells were incubated with the siRNA complex for 5 min, after which, DMEM/F12 media containing FBS was added into each well to dilute the siRNA complexes to 5 nM.
Intracellular ROS in BV-2 cells, following treatment with MFP compounds and LPS, was detected using the widely-used membrane permeable probe, DCF-DA. Post treatment, BV-2 cells were rinsed once with warm HBSS prior to being incubated with 40 µM of DCF-DA for 30 min at 37°C, 5% CO2. The wells were then rinsed again with HBSS before being read on a Perkin-Elmer Enspire plate reader (λex: 488 nm, λem: 535 nm) as we have reported previously (Kagawa et al. [2023]).

LPS-activated BV-2 cells [3] = test: TNF-α ELISA of supernatant of LPS-activated BV-2 cells; type: cell-based, mouse
Method: BV-2 cells were cultured in DMEM/F-12 media supplemented with 10% (v/v) FBS and 1% (v/v) penicillin/streptomycin, and kept at 37 °C in a humidified incubator ([…], 5% CO2) for all studies. Cells with 80% confluency were used for experiments. At 24 h post-seeding, BV-2 cells were treated with either of the MFP compounds (at concentrations detailed below) or vehicle (0.1% (v/v) DMSO) and 1 µg/mL LPS for a period of 24 h. In some experiments (detailed in Results), BV-2 cells were exposed to MFP compounds for 2 h before a 24 h exposure to LPS and MFP compounds, and in some studies, in the presence of FABP4 siRNA using a 24 h treatment that we have previously employed (Low et al. [2021]). […]
ELISA was performed as per manufacturer’s protocol to measure the concentration of TNF-α in the supernatant in which BV-2 cells were treated. […] 100 µL of Stop solution was added into each well before the plate was immediately read on a Perkin-Elmer Enspire fluorescence plate reader at 450 nm […] and 570 nm (absorbance). Absorbance values at 570 nm were subtracted from 450 nm to account for background. TNF-α concentration was normalised to total protein count (mg), as quantified by a BCA assay, and reported as pg/mg protein.

[4] = BV-2 cells pre-treated with LPS for 4 h, then 10 µM compound

Kd [1]: 0.316 µM
SMILES: O=C(O)c1cccc(NS(=O)(=O)c2ccc(Cl)c(Cl)c2)c1 [MFP-0012328]
reduction of ROS production vs LPS-treated BV-2 cells (LPS-activated BV-2 cells [2]; 5 nM FABP4 siRNA, 10 µM MFP-0012328, or both, with 1 µg/mL LPS 24 h, range over the three treatments): 36.6–61.2%
further reduction of ROS levels in FABP4 siRNA treated cells (LPS-activated BV-2 cells [2]; 10 µM plus 5 nM FABP4 siRNA, 1 µg/mL LPS 24 h): not able to reduce ROS levels any further
reduction of ROS production vs LPS-alone (LPS-activated BV-2 cells [2]; [4]): 27.8%
reduction in extracellular concentration of TNF-α relative to LPS-only (LPS-activated BV-2 cells [3]; 10 µM, 1 µg/mL LPS 24 h): 25% and 24.8%
reduction of TNF-α release vs LPS-alone (LPS-activated BV-2 cells [3]; [4]): 15.7%
